# Source: US7998988B2, “Biphenyl compounds useful in the treatment or prevention of cardiovascular disorders” (Bayer Schering Pharma Aktiengellschaft, priority 2005, dated 2011)
# Legend:
# saphenous artery rings = test: Vasorelaxant effect in vitro (phenylephrine-contracted artery rings); type: cell-based; details: rabbit saphenous artery rings, contraction induced by phenylephrine
# Description: Rabbits are anesthetized and sacrificed by intravenous injection of thiopental sodium (about 50 mg/kg) and exsanguinated. The saphenous artery is removed and divided into rings 3 mm wide. The rings are mounted singly on in each case a pair of triangular hooks open at the end and made of 0.3 mm-thick special wire (Remanium®). Each ring is placed under an initial tension in 5 ml organ baths with Krebs-Henseleit solution which is at 37° C., is gassed with 95% 02/5% CO2 and has the following composition: NaCl 119 mM; KCl 4.8 mM; CaCl2×2H2O 1 mM; MgSO4×7 H2O 1.4 mM; KH2PO4 1.2 mM; NaHCO3 25 mM; glucose 10 mM; bovine serum albumin 0.001%. The force of contraction is detected with Statham UC2 cells, amplified and digitized via A/D converters (DAS-1802 HC, Keithley Instruments, Munich) and recorded in parallel on chart recorders. Contractions are induced by addition of phenylephrine.
# After several (generally 4) control cycles, the substance to be investigated is added in each further run in increasing dosage, and the height of the contraction achieved under the influence of the test substance is compared with the height of the contraction reached in the last preceding run. The concentration necessary to reduce the contraction reached in the preceding control by 50% is calculated from this (IC50). The standard application volume is 5 μl. The proportion of DMSO in the bath solution corresponds to 0.1%.
# [1] = target: T1, heme-free recombinant soluble guanylate cyclase (sGC) (Rattus norvegicus, UniProt P20595); test: Stimulation of recombinant soluble guanylate cyclase (sGC) in vitro, heme-free; type: biochemical; details: heme-free sGC (Tween 20)
# T1 construct: made in house
# T1 sequence (P20595 1-619): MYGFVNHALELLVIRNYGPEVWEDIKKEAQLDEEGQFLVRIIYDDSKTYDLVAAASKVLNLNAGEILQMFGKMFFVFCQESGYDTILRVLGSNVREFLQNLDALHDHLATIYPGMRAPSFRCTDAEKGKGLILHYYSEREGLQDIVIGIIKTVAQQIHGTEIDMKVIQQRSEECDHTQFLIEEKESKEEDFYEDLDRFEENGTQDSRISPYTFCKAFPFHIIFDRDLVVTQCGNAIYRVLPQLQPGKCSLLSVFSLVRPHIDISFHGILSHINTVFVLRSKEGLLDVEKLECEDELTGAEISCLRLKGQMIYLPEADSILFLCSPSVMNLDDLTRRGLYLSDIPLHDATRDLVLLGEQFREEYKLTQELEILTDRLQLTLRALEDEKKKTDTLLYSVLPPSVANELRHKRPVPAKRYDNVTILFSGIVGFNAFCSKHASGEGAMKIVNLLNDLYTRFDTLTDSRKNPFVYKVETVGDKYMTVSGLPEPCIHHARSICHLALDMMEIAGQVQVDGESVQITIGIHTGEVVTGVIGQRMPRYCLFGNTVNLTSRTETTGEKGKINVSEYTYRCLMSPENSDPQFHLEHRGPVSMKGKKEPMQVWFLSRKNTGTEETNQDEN
# T1 sequence (P19686 1-690 partner): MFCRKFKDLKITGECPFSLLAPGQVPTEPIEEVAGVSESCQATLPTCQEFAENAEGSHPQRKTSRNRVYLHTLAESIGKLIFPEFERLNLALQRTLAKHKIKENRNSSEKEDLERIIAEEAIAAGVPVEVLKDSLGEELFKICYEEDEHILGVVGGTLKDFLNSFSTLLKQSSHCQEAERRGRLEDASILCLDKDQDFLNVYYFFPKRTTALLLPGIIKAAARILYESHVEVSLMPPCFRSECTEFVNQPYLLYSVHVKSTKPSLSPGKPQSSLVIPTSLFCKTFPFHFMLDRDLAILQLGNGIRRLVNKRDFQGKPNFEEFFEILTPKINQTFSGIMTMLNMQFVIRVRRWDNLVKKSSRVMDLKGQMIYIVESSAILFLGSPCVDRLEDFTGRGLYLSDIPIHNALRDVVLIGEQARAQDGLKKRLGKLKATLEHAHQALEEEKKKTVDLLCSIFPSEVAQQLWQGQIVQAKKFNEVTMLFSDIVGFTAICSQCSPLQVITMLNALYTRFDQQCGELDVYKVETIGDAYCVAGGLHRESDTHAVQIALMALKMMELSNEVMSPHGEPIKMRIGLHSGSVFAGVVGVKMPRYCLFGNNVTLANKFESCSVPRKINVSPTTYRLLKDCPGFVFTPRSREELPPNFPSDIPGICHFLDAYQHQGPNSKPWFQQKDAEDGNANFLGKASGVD
# Description: Investigations on the stimulation of recombinant soluble guanylate cyclase (sGC) by the compounds according to the invention with and without sodium nitroprusside, and with and without the heme-dependent sGC inhibitor 1H-1,2,4-oxadiazole-(4,3a)-quinoxalin-1-one (ODQ) are carried out by the method described in detail in the following reference: M. Hoenicka, E. M. Becker, H. Apeler, T. Sirichoke, H. Schroeder, R. Gerzer and J.-P. Stasch, “Purified soluble guanylyl cyclase expressed in a baculovirus/Sf9 system: Stimulation by YC-1, nitric oxide, and […]”, J. Mol. Med. 77 (1999), 14-23. The heme-free guanylate cyclase is obtained by adding Tween 20 to the sample buffer (0.5% in the final concentration).
# (§1) The activation of sGC by a test substance is reported as n-fold stimulation of the basal activity.
# [2] = target: T2, heme-containing recombinant soluble guanylate cyclase (sGC) (Rattus norvegicus, UniProt P20595); test: Stimulation of recombinant soluble guanylate cyclase (sGC) in vitro, heme-containing; type: biochemical
# T2 construct: made in house
# T2 sequence (P20595 1-619): T1 sequence (P20595 1-619)
# T2 sequence (P19686 1-690 partner): T1 sequence (P19686 1-690 partner)
# From the text: Hoenicka, E. M. Becker, H. Apeler, T. Sirichoke, H. Schroeder, R. Gerzer and J.-P. Stasch, “Purified soluble guanylyl cyclase expressed in a baculovirus/Sf9 system: Stimulation by YC-1, nitric oxide, and carbon oxide”, J. Mol. Med. 77 (1999), 14-23. The heme-free guanylate cyclase is obtained by adding Tween 20 to the sample buffer (0.5% in the final concentration).
# as §1
structure (smiles),measurement,setting,value
"O=C(O)c1ccc(CCC(/C=C/c2ccccc2OCc2ccc(-c3ccc(C(F)(F)F)cc3)cc2)Cc2ccc(-c3noc(=O)[nH]3)cc2)cc1 (single isomer, unassigned) [Example 55, E-4-{3-[4-(5-Oxo-4,5-dihydro-[1,2,4]oxadiazol-3-yl)benzyl]-5-[2-(4′-trifluoromethylbiphenyl-4-ylmethoxy)phenyl]pent-4-enyl}benzoic acid]",IC50,saphenous artery rings,146 nM
same,"Stimulation (n-fold) of heme-free sGC, Basal",[1]; 0.001 μM test substance,3.7 n-fold
same,"Stimulation (n-fold) of heme-free sGC, Basal",[1]; 0.01 μM test substance,24.0 n-fold
same,"Stimulation (n-fold) of heme-free sGC, Basal",[1]; 0.1 μM test substance,98.1 n-fold
same,"Stimulation (n-fold) of heme-free sGC, Basal",[1]; 1 μM test substance,132.6 n-fold
same,"Stimulation (n-fold) of heme-free sGC, Basal",[1]; 10 μM test substance,137.9 n-fold
same,"Stimulation (n-fold) of sGC, +0.01 μM DEA/NO",[2]; 0.001 μM test substance,10.6 n-fold
same,"Stimulation (n-fold) of sGC, +0.01 μM DEA/NO",[2]; 0.01 μM test substance,13.0 n-fold
same,"Stimulation (n-fold) of sGC, +0.01 μM DEA/NO",[2]; 0.1 μM test substance,25.5 n-fold
same,"Stimulation (n-fold) of sGC, +0.01 μM DEA/NO",[2]; 1 μM test substance,35.4 n-fold
same,"Stimulation (n-fold) of sGC, +0.01 μM DEA/NO",[2]; 10 μM test substance,42.5 n-fold
same,"Stimulation (n-fold) of sGC, +0.1 μM DEA/NO",[2]; 0.001 μM test substance,50.3 n-fold
same,"Stimulation (n-fold) of sGC, +0.1 μM DEA/NO",[2]; 0.01 μM test substance,53.4 n-fold
same,"Stimulation (n-fold) of sGC, +0.1 μM DEA/NO",[2]; 0.1 μM test substance,66.5 n-fold
same,"Stimulation (n-fold) of sGC, +0.1 μM DEA/NO",[2]; 1 μM test substance,75.1 n-fold
same,"Stimulation (n-fold) of sGC, +0.1 μM DEA/NO",[2]; 10 μM test substance,81.5 n-fold
same,"Stimulation (n-fold) of sGC, +10 μM ODQ",[2]; 0.01 μM test substance,12.7 n-fold
same,"Stimulation (n-fold) of sGC, +10 μM ODQ",[2]; 0.1 μM test substance,66.3 n-fold
same,"Stimulation (n-fold) of sGC, +10 μM ODQ",[2]; 1 μM test substance,107.4 n-fold
same,"Stimulation (n-fold) of sGC, +10 μM ODQ",[2]; 10 μM test substance,105.5 n-fold
same,"Stimulation (n-fold) of sGC, Basal",[2]; 0.001 μM test substance,1.4 n-fold
same,"Stimulation (n-fold) of sGC, Basal",[2]; 0.01 μM test substance,3.1 n-fold
same,"Stimulation (n-fold) of sGC, Basal",[2]; 0.1 μM test substance,15.5 n-fold
same,"Stimulation (n-fold) of sGC, Basal",[2]; 1 μM test substance,25.4 n-fold
same,"Stimulation (n-fold) of sGC, Basal",[2]; 10 μM test substance,33.0 n-fold
same,Synergism with the NO donor DEA/NO on sGC stimulation,[2]; combination with DEA/NO,no synergistic effect
